{"source": "paper PMC6582486", "about": "“Stapled EGFR peptide reduces inflammatory breast cancer and inhibits additional HER-driven models of cancer” (Journal of Translational Medicine, 2019)", "key": {"[1]": {"system": "MDA-MB-468 breast cancer cells", "type": "cell-based, human", "conditions": "for increase in efficacy over unstapled EJ1: MDA-MB-468 cell viability, ratio of IC50", "from_the_text": "Fig. 1 Hydrocarbon stapling leads to increased EJ1 activity in comparison to HER-directed monoclonal therapies. a EJ1 sequence with PTD4 domain (underlined) corresponding to EGFR juxtamembrane domain sequence 643–663. Stabilized alpha helix (SAH) variations 1–5 beneath, with asterisks (*) indicating sites of staple. Control peptide (CP) with altered residues indicated by double underline. Stapled control (5) asterisks (*) indicate sites of staple. b Cartoon representation of EJ1 structure, with staple variation 5 highlighted. Positively charged residues indicated in blue, negatively charged residues in red. c Cartoon representation of CP structure, with staple variation highlighted. d Cell viability assay performed in MDA-MB-468 cells after 24 h comparing unstapled EJ1 versus staple variations SAH1, SAH4, and SAH5, with increasing concentrations. e Visualization of MDA-MB-468 cells untreated, treated with 10 µM EJ1, and 10 µM SAH5-EJ1 after 60 min. Scale bars represent 50 µm. f–h Cell viability assay performed in MDA-MB-468, MCF10A, or CHO cells over 3 days comparing treatment with Sapitinib (blue lines), SAH5-EJ1 (red lines), and SAH5-CP (grey lines). […] Data shown in d, f, g–i represent mean ± percent difference of assays performed in triplicate 1000–3000 cells were plated in 96-well plates (Falcon; Corning, NY) and allowed to adhere for 24–48 h prior to therapeutic introduction. Compounds were added and incubated on cells for 3 days in serum-containing media, followed by 2 h treatment with MTT (Sigma M5655) with the resulting formazan solubilized in DMSO. Absorbance was read at 540 nm by plate reader (uQuant, Bio-Tek Instruments). P-values were calculated from a one-way ANOVA."}, "[2]": {"system": "luciferized murine glioma (Ink4a/ARF-/-; hEGFRvIII)", "assay": "Orthotopic EGFRvIII glioblastoma mouse model, survival", "type": "in vivo, nude mice", "conditions": "SAH5-EJ1 10 µg/g IV (N = 4), control peptide N = 6", "protocol": "Patient samples used were provided by the Biobank Core Facility at Barrow Neurological Institute. Samples were de-identified and conformed to the Biobank IRB protocol. Patient-derived cell lines (GB16 and GB71) were established from resected primary GBM tumor tissue. Tissue was processed using the Gentle MACS Dissociator and Tumor Tissue Dissociation kit (Miltenyi Biotec Inc.; Auburn, CA). Animal husbandry was performed according to the guidelines of St. Joseph Hospital and Medical Center and Barrow Neurological Institute under the Institutional Animal Care and Use Committee-approved protocol. Five- to six-week-old CrTac: NCr-Foxn1^nu nude mice (Taconic Biosciences; Hudson, NY) were used for in vivo orthotropic transplant of luciferized murine glioma model (Ink4a/ARF^−/−; hEGFRvIII). For orthotopic transplants, 2 μL of dissociated cells at a density of 100,000 cells/μL were injected in the right striatum, as described previously. In vivo tumor growth was measured by IVIS xenogen bioluminescence imaging (BLI) system after IP injection of 150 mg/kg Luciferin (Gold Biotechnology; St, Louis, MO) every week after 1-month post-surgery. […]\nFig. 2 SAH5-EJ1 enters cells, colocalizes with mitochondria, and survives in vivo, resulting in glioblastoma-derived cell death and glioma mouse model survival. […] H Luminescence distribution throughout organs. […]"}, "CHO cells": {"system": "CHO cells", "assay": "Cell viability assay (MTT), CHO", "type": "cell-based, Chinese Hamster", "conditions": "5 µM (Fig. 1h)", "from_the_text": "Fig. 1 Hydrocarbon stapling leads to increased EJ1 activity in comparison to HER-directed monoclonal therapies. a EJ1 sequence with PTD4 domain (underlined) corresponding to EGFR juxtamembrane domain sequence 643–663. Stabilized alpha helix (SAH) variations 1–5 beneath, with asterisks (*) indicating sites of staple. Control peptide (CP) with altered residues indicated by double underline. Stapled control (5) asterisks (*) indicate sites of staple. b Cartoon representation of EJ1 structure, with staple variation 5 highlighted. Positively charged residues indicated in blue, negatively charged residues in red. c Cartoon representation of CP structure, with staple variation highlighted. d Cell viability assay performed in MDA-MB-468 cells after 24 h comparing unstapled EJ1 versus staple variations SAH1, SAH4, and SAH5, with increasing concentrations. e Visualization of MDA-MB-468 cells untreated, treated with 10 µM EJ1, and 10 µM SAH5-EJ1 after 60 min. Scale bars represent 50 µm. f–h Cell viability assay performed in MDA-MB-468, MCF10A, or CHO cells over 3 days comparing treatment with Sapitinib (blue lines), SAH5-EJ1 (red lines), and SAH5-CP (grey lines). […] Absorbance was read at 540 nm by plate reader (uQuant, Bio-Tek Instruments). P-values were calculated from a one-way ANOVA."}}, "note": "Read-outs that look alike come from different tables or passages of the source. Where a SMILES comes first, the peptide text is derived from it. Bridges are numbered along the chain shown (N, C = ends). [ ]: non-standard residue; d: D form. R8 = C=CCCCCCC[C@@](C)(N)C(=O)O; S5 = C=CCCC[C@](C)(N)C(=O)O"}
{"smiles": "CC[C@H](C)[C@H](NC(=O)[C@H](Cc1c[nH]cn1)NC(=O)[C@H](CCCNC(=N)N)NC(=O)[C@H](CCCNC(=N)N)NC(=O)[C@H](CCCNC(=N)N)NC(=O)[C@H](CCSC)NC(=O)[C@H](Cc1ccccc1)NC(=O)[C@H](C)NC(=O)[C@H](CCCNC(=N)N)NC(=O)[C@H](C)NC(=O)[C@H](CCC(N)=O)NC(=O)[C@H](CCCNC(=N)N)NC(=O)[C@H](C)NC(=O)[C@H](C)NC(=O)[C@H](C)NC(=O)[C@H](CCCNC(=N)N)NC(=O)[C@H](C)NC(=O)[C@@H](N)Cc1ccc(O)cc1)C(=O)N[C@H](C(=O)N[C@@H](CCCNC(=N)N)C(=O)N[C@@H](CCCCN)C(=O)N[C@@H](CCCNC(=N)N)C(=O)N[C@]1(C)CCCCCCC=CCCC[C@@](C)(C(=O)N[C@@H](CCCNC(=N)N)C(=O)N[C@@H](CCC(=O)O)C(N)=O)NC(=O)[C@H](CCC(N)=O)NC(=O)[C@H](CC(C)C)NC(=O)[C@H](CC(C)C)NC(=O)[C@H](CCCNC(=N)N)NC(=O)[C@H](CCCNC(=N)N)NC(=O)[C@H](CC(C)C)NC1=O)C(C)C", "note": "[SAH5-EJ1] (H-YARAAARQARAFMRRRHIVRKR[R8]LRRLLQ[S5]RE-NH2; staple 23-30)", "values": [{"measurement": "IC50", "setting": "[1]; 24 h", "value": 2.5, "unit": "µM"}, {"measurement": "cell death", "setting": "[1]; MDA-MB-468, 4 µM, after 1 day", "value": "complete cell death"}, {"measurement": "increase in efficacy over unstapled EJ1", "setting": "[1]", "value": "more than 7 fold"}, {"measurement": "increase in efficacy over unstapled EJ1", "setting": "[1]; listed as SAH-EJ1", "value": 7.2, "unit": "fold"}, {"measurement": "mice alive after 72 days", "setting": "[2]", "value": 75, "unit": "%"}, {"measurement": "cell viability", "setting": "CHO cells", "value": 67, "unit": "%"}]}
